From US8652231B2, “Metal complexes; use thereof for the preparation of compositions for agricultural use” (Timac Argo International, priority 2008, dated 2014)

Test: Capacity of the test compounds for keeping iron soluble in the presence of calcium
Type: physicochemical
Settings: 20 mg iron per liter, pH 7, 8, 9 and 10, CaCl2 0.020 M, after three days, filtered; FIG. 1
Method: For each product tested, four solutions were prepared containing 20 milligrams of iron per liter and having respectively a pH of 7, 8, 9 and 10 (the pH having been adjusted with sodium hydroxide or hydrochloric acid).
Four similar solutions were prepared, each containing calcium chloride CaCl2 (0.020 M).
After three days, these solutions were filtered through filters with a pore size of 0.045 micrometer and the iron content in the […] was determined by inductively coupled plasma emission optical spectroscopy (ICP-EOS).
The amount of iron remaining in solution in the presence of calcium ions was calculated using the following formula:
[formula] in which: [Fe]pHi+Ca represents the concentration of iron in the filtrate from a solution (containing calcium chloride 0.020 M) with pH equal to i, expressed in milligrams per liter; [Fe]pHi represents the concentration of iron in the filtrate from a solution not containing calcium with pH equal to i, expressed in milligrams per liter. Results

Citrate-Fe(III) Complex
iron remaining in solution in the presence of calcium ions: undergoes precipitation in the range of pH between the values of 9 and 10
